The results in this text go back to patent US7741341B2, “Benzimidazole-derivatives as factor Xa inhibitors” (sanofi-aventis Deutschland GmbH, priority 2003, dated 2010).

For orientation: Ki means the dissociation constant of the complex between target and ligand, obtained from inhibition or displacement.

SMILES strings stand for the structures.

The target of the test is T1, human factor Xa (Homo sapiens, UniProt P00742).
T1 construct: human factor Xa (Enzyme Research Laboratories, Inc; South Bend, Ind.); purchased Enzyme Research Laboratories, Inc; South Bend, Ind
T1 sequence (P00742 235-488 limits assumed): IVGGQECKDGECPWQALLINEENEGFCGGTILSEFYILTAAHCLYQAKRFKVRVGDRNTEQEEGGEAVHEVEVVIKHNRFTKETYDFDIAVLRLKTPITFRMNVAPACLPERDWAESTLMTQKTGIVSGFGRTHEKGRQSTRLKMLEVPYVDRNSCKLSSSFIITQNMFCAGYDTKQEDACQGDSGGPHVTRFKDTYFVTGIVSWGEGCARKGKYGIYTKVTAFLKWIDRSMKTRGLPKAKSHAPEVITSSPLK
T1 sequence (P00742 41-179 partner limits assumed): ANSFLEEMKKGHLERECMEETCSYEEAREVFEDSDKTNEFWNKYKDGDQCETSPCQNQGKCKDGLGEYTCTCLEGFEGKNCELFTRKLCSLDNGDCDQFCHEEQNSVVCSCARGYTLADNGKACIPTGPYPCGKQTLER
Description: Factor Xa assay (chromogenic, substrate S-2765). The following applies: read-out: Ki(FXa). Type of test: biochemical. The method, then: Purified enzymes were used in chromogenic assays.
The IC50 was determined by combining in appropriate wells of a Costar half-area microtiter plate 25 μl human factor Xa (Enzyme Research Laboratories, Inc.; South Bend, Ind.) in TBS-PEG; 40 μl 10% (v/v) DMSO in TBS-PEG (uninhibited control) or various concentrations of the compound to be tested diluted in 10% (v/v) DMSO in TBS-PEG; and substrate S-2765 (N(α)-benzyloxycarbonyl-D-Arg-Gly-L-Arg-p-nitroanilide; Kabi Pharmacia, Inc.; Franklin, Ohio) in TBS-PEG.
The assay was performed by pre-incubating the compound of formula I plus enzyme for 10 min. Then the assay was initiated by adding substrate to obtain a final volume of 100 μl. […] The enzyme concentration was 0.5 nM and substrate concentration was 140 μM.
With `CN1C2CCC1CC(NC(=O)c1nc3ccccc3n1Cc1cc(-c3ccc(Cl)s3)on1)C2` (centres unmarked) [Example 40, 1-[5-(5-Chloro-thiophen-2-yl)-isoxazol-3-ylmethyl]-1H-benzoimidazole-2-carboxylic acid (8-methyl-8-aza-bicyclo[3.2.1]oct-3-yl)-amide], the Ki amounted to 20 nM. In the case of `O=C(Nc1ccc(-n2ccc(=O)cc2)cc1)c1nc2ccccc2n1Cc1cc(-c2ccc(Cl)s2)on1` [Example 37, 1-[5-(5-Chloro-thiophen-2-yl)-isoxazol-3-ylmethyl]-1H-benzoimidazole-2-carboxylic acid [4-(4-oxo-4H-pyridin-1-yl)-phenyl]-amide], the Ki stood at 12 nM. `CC(C)N1CCC(NC(=O)c2nc3c(c(=O)n(C)c(=O)n3C)n2Cc2cc(-c3ccc(Cl)s3)on2)CC1` [Example 92, 7-[5-(5-Chloro-thiophen-2-yl)-isoxazol-3-ylmethyl]-1,3-dimethyl-2,6-dioxo-2,3,6,7-tetrahydro-1H-purine-8-carboxylic acid (1-isopropyl-piperidin-4-yl)-amide]: the Ki was 22.5 nM.

Consider `CC(C)N1CCC(NC(=O)c2nc3cccnc3n2Cc2cc(-c3ccc(Cl)s3)on2)CC1` [Example 14, 3-[5-(5-Chloro-thiophen-2-yl)-isoxazol-3-ylmethyl]-3H-imidazo[4,5-b]pyridine-2-carboxylic acid (1-isopropyl-piperidin-4-yl)-amide], for which the Ki was 2390 nM. The same measure for `CC(OC(=O)OC1CCCCC1)OC(=O)c1ccc2nc(C(=O)NC3CCN(C(C)C)CC3)n(CC(=O)Nc3ccc(Cl)cn3)c2c1` (centres unmarked) [Example 61, 3-[(5-Chloro-pyridin-2-ylcarbamoyl)-methyl]-2-(1-isopropyl-piperidin-4-ylcarbamoyl)-3H-benzoimidazole-5-carboxylic acid 1-cyclohexyloxycarbonyloxy-ethyl ester]: 867 nM. Regarding `COCCOC(=O)c1cccc2c1nc(C(=O)NC1CCN(C(C)C)CC1)n2CC(=O)Nc1ccc(Cl)cn1` [Example 70, 1-[(5-Chloro-pyridin-2-ylcarbamoyl)-methyl]-2-(1-isopropyl-piperidin-4-ylcarbamoyl)-1H-benzoimidazole-4-carboxylic acid 2-methoxy-ethyl ester], the inhibitory constant (Ki) turned out to be 15 nM. Regarding `COC(=O)c1cccc2c1nc(C(=O)NC1CCN(C(C)C)CC1)n2Cc1cc(-c2ccc(Cl)s2)on1` [Example 11a, 1-[5-(5-Chloro-thiophen-2-yl)-isoxazol-3-ylmethyl]-2-(1-isopropyl-piperidin-4-ylcarbamoyl)-1H-benzoimidazole-4-carboxylic acid methyl ester], the inhibitory constant (Ki) was 4 nM. Then `O=C(Cn1c(C(=O)Nc2ccc(N3CCNCC3=O)cc2)nc2ccccc21)Nc1ccc(Cl)cn1` [Example 51, 1-[(5-Chloro-pyridin-2-ylcarbamoyl)-methyl]-1H-benzoimidazole-2-carboxylic acid [4-(2-oxo-piperazin-1-yl)-phenyl]-amide], with 510 nM; and `CC(C)N1CCC(NC(=O)c2nc3c(C(=O)NCCO)cccc3n2CC(=O)Nc2ccc(Cl)cn2)CC1` [Example 30, 1-[(5-Chloro-pyridin-2-ylcarbamoyl)-methyl]-1H-benzoimidazole-2,4-dicarboxylic acid 4-[(2-hydroxy-ethyl)-amide] 2-[(1-isopropyl-piperidin-4-yl)-amide]], with 9 nM; and `COC(=O)c1ccc2c(c1)nc(C(=O)NC1CCN(C(C)C)CC1)n2CC(=O)Nc1ccc(Cl)cn1` [Example 17a, 1-[(5-Chloro-pyridin-2-ylcarbamoyl)-methyl]-2-(1-isopropyl-piperidin-4-ylcarbamoyl)-1H-benzoimidazole-5-carboxylic acid methyl ester], with 19.5 nM. Then `CCOC(=O)OC(C)OC(=O)c1ccc2c(c1)nc(C(=O)NC1CCN(C(C)C)CC1)n2Cc1cc(-c2ccc(Cl)s2)on1` (centres unmarked) [Example 27, 1-[5-(5-Chloro-thiophen-2-yl)-isoxazol-3-ylmethyl]-2-(1-isopropyl-piperidin-4-ylcarbamoyl)-1H-benzoimidazole-5-carboxylic acid 1-ethoxycarbonyloxy-ethyl ester], with 12.5 nM; and `CC(C)N1CCC(NC(=O)c2nc3c(C(=O)NCCO)cccc3n2Cc2cc(-c3ccc(Cl)s3)on2)CC1` [Example 22, 1-[5-(5-Chloro-thiophen-2-yl)-isoxazol-3-ylmethyl]-1H-benzoimidazole-2,4-dicarboxylic acid 4-[(2-hydroxy-ethyl)-amide] 2-[(1-isopropyl-piperidin-4-yl)-amide]], with 0.7 nM.

Turning to `O=C(Nc1ccc(-n2ccc(=O)[nH]c2=O)cc1)c1nc2ccccc2n1Cc1cc(-c2ccc(Cl)s2)on1` [Example 41, 1-[5-(5-Chloro-thiophen-2-yl)-isoxazol-3-ylmethyl]-1H-benzoimidazole-2-carboxylic acid [4-(2,4-dioxo-3,4-dihydro-2H-pyrimidin-1-yl)-phenyl]-amide], the Ki is 6 nM.

As for `CCOC(=O)OC(C)OC(=O)c1cccc2c1nc(C(=O)NC1CCN(C(C)C)CC1)n2CC(=O)Nc1ccc(Cl)cn1` (centres unmarked) [Example 33, 1-[(5-Chloro-pyridin-2-ylcarbamoyl)-methyl]-2-(1-isopropyl-piperidin-4-ylcarbamoyl)-1H-benzoimidazole-4-carboxylic acid 1-ethoxycarbonyloxy-ethyl ester], the Ki came to 12.5 nM. Then `COC(=O)c1cccc2c1nc(C(=O)NC1CCN(C(C)C)CC1)n2CC(=O)Nc1ccc(Cl)cn1` [Example 15, 1-[(5-Chloro-pyridin-2-ylcarbamoyl)-methyl]-2-(1-isopropyl-piperidin-4-ylcarbamoyl)-1H-benzoimidazole-4-carboxylic acid methyl ester], with 11.5 nM; and `CC(C)N1CCC(NC(=O)c2nc3c(C(=O)N4CCC(O)CC4)cccc3n2Cc2cc(-c3ccc(Cl)s3)on2)CC1` [Example 91, 1-[5-(5-Chloro-thiophen-2-yl)-isoxazol-3-ylmethyl]-4-(4-hydroxy-piperidine-1-carbonyl)-1H-benzoimidazole-2-carboxylic acid (1-isopropyl-piperidin-4-yl)-amide], with 21 nM; and `COCCOc1cccc2c1nc(C(=O)NC1CCN(C(C)C)CC1)n2CC(=O)Nc1ccc(Cl)cn1` [Example 108, 1-[(5-Chloro-pyridin-2-ylcarbamoyl)-methyl]-4-(2-methoxy-ethoxy)-1H-benzoimidazole-2-carboxylic acid (1-isopropyl-piperidin-4-yl)-amide], with 6.5 nM. Then `CC(C)N1CCC(NC(=O)c2nc3cc(C(=O)OCCO)ccc3n2Cc2cc(-c3ccc(Cl)s3)on2)CC1` [Example 78, 1-[5-(5-Chloro-thiophen-2-yl)-isoxazol-3-ylmethyl]-2-(1-isopropyl-piperidin-4-ylcarbamoyl)-1H-benzoimidazole-5-carboxylic acid 2-hydroxy-ethyl ester], with 3.5 nM. The same measure for `CC(C)N1CCC(NC(=O)c2nc3ccccc3n2Cc2cc(-c3ccc(Cl)s3)on2)CC1` [Example 1, 1-[5-(5-Chloro-thiophen-2-yl)-isoxazol-3-ylmethyl]-1H-benzoimidazole-2-carboxylic acid (1-isopropyl-piperidin-4-yl)-amide]: 0.7 nM. Turning to `CC(C)N1CCC(NC(=O)c2nc3ccc(C(=O)O)cc3n2CC(=O)Nc2ccc(Cl)cn2)CC1` [Example 19, 3-[(5-Chloro-pyridin-2-ylcarbamoyl)-methyl]-2-(1-isopropyl-piperidin-4-ylcarbamoyl)-3H-benzoimidazole-5-carboxylic acid], the Ki was 23.5 nM. The same measure for `CC(C)N1CCC(NC(=O)c2nc3c(C(=O)N4CC(O)C4)cccc3n2CC(=O)Nc2ccc(Cl)cn2)CC1` [Example 32, 1-[(5-Chloro-pyridin-2-ylcarbamoyl)-methyl]-4-(3-hydroxy-azetidine-1-carbonyl)-1H-benzoimidazole-2-carboxylic acid (1-isopropyl-piperidin-4-yl)-amide]: 10.5 nM; for `CC(C)N1CCC(NC(=O)c2nc3ccc(C(=O)O)cc3n2Cc2cc(-c3ccc(Cl)s3)on2)CC1` [Example 7, 3-[5-(5-Chloro-thiophen-2-yl)-isoxazol-3-ylmethyl]-2-(1-isopropyl-piperidin-4-ylcarbamoyl)-3H-benzoimidazole-5-carboxylic acid]: 16.5 nM; for `CC(OC(=O)OC1CCCCC1)OC(=O)c1ccc2c(c1)nc(C(=O)NC1CCN(C(C)C)CC1)n2Cc1cc(-c2ccc(Cl)s2)on1` (centres unmarked) [Example 28, 1-[5-(5-Chloro-thiophen-2-yl)-isoxazol-3-ylmethyl]-2-(1-isopropyl-piperidin-4-ylcarbamoyl)-1H-benzoimidazole-5-carboxylic acid 1-cyclohexyloxycarbonyloxy-ethyl ester]: 48 nM. Take `CC(C)N1CCC(NC(=O)c2nc3ccccc3n2CC(=O)Nc2ccc(Cl)cc2)CC1` [Example 2, 1-[(4-Chloro-phenylcarbamoyl)-methyl]-1H-benzoimidazole-2-carboxylic acid (1-isopropyl-piperidin-4-yl)-amide]: the Ki amounted to 3.1 nM. As for `O=C(Cn1c(C(=O)Nc2ccc(-n3ccc(=O)cc3)cc2)nc2ccccc21)Nc1ccc(Cl)cn1` [Example 39, 1-[(5-Chloro-pyridin-2-ylcarbamoyl)-methyl]-1H-benzoimidazole-2-carboxylic acid [4-(4-oxo-4H-pyridin-1-yl)-phenyl]-amide], the Ki came out at 47 nM.

On to `CCOC(=O)OC(C)OC(=O)c1ccc2nc(C(=O)NC3CCN(C(C)C)CC3)n(CC(=O)Nc3ccc(Cl)cn3)c2c1` (centres unmarked) [Example 63, 3-[(5-Chloro-pyridin-2-ylcarbamoyl)-methyl]-2-(1-isopropyl-piperidin-4-ylcarbamoyl)-3H-benzoimidazole-5-carboxylic acid 1-ethoxycarbonyloxy-ethyl ester], for which the Ki came out at 687 nM.
